Patent publication US9777034B2, “Modular synthesis of amphiphilic Janus glycodendrimers and their self-assembly into glycodendrimersomes” (The Trustees of The University of Pennsylvania, priority 2013, dated 2017)

Key:
galectin-4 (Gal-4) = target: T1, galectin-4 (Gal-4) (Homo sapiens, UniProt P56470); assay: Agglutination of glycodendrimersomes with Gal-4; format: binding; conditions: [52bd]=1.0 mg/mL, [Gal-4]=0-4.0 mg/mL, 10 mM HEPES
T1 construct: made in house
T1 sequence (P56470 1-323): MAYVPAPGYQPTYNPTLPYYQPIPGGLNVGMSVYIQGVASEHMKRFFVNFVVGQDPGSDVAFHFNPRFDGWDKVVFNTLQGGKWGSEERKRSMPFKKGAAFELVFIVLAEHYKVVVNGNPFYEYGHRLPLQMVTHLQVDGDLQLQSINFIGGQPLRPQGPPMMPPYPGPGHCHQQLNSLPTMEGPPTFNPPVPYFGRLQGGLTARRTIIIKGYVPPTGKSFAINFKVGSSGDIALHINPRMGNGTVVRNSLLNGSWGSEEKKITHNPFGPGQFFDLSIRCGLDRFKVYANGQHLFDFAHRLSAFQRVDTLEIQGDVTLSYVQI

[1] = Self-assembly by injection of THF or ethanol solution into water or buffer, analysed by DLS (size, polydispersity, stability in time); conditions: PBS and HEPES buffers
Description: The resulting assemblies were first analyzed by dynamic light scattering (DLS) for size, polydispersity (PDI), and stability in time. Assemblies stable in time were subsequently analyzed by cryogenic-transmission electron microscopy (cryo-TEM) to determine their structure.
Dynamic light scattering (DLS) was performed with a Malvern Instruments particle sizer (Zetasizer® Nano S, Malvern Instruments, UK) equipped with 4 mW He—Ne laser 633 nm and avalanche photodiode positioned at 175° to the beam and temperature controlled cuvette holder. Instrument parameters were determined automatically along with measurement times. Experiments were performed in triplicate. The Janus-dendrimer (1 mg) dissolved in 100 μL of THF was injected into 2 mL of ultrapure water or buffer followed by 5 seconds of vortex mixing. DLS experiments were measured at 25° C. Different final concentration of dendrimersomes in water was prepared from varying the starting concentration of THF solution with the same injection volume (100 μL) into constant 2.0 mL of ultrapure water or buffer.

galectin-3 (Gal-3) = target: T2, galectin-3 (Gal-3) (Homo sapiens, UniProt P17931); assay: Agglutination of glycodendrimersomes with Gal-3; format: binding; conditions: [52bd]=1.0 mg/mL, [Gal-3]=0-4.0 mg/mL, 10 mM HEPES
T2 construct: made in house
T2 sequence (P17931 whole entry): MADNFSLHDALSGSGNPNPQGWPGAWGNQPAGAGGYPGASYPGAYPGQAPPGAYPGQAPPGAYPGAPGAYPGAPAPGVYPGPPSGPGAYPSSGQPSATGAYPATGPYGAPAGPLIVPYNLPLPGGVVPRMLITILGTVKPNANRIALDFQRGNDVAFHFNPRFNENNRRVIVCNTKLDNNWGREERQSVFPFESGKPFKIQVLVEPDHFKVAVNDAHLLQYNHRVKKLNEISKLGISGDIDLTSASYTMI

[2] = Cryo-TEM of assemblies formed in water; format: physicochemical; conditions: injection into water, cryo-TEM
[3] = tested on: Viscum album L. agglutinin (VAA)

Which “agglutination with Gal-4” value (galectin-4 (Gal-4)) does the source give for “(3,5)12G1-PE-TRZ-4EOLac2 [Compound 52bd]” here?
Its value is “agglutination”.

And the “stability of glycodendrimersomes in buffer” value [1]?
Its value is “stable in buffer”.

What about the “agglutination with Gal-3” value (galectin-3 (Gal-3)) of the same substance?
Its value is “agglutination”.

And the “structure of assemblies formed in water” value [2]?
Its value is “glycodendrimersomes”.

And the “agglutination with VAA” value [3]?
Its value is “agglutination effect can be clearly visualized”.
